This is an account of results in publication PMC9945182 (Chemical Research in Toxicology, 2023).

Series [1] relates to human liver microsomes (HLM). Description: Inhibition of nicotine to cotinine formation in pooled human liver microsomes. The following applies: nicotine 500 μM. The format is biochemical. (Microsomes from liver hold many membrane-bound enzymes, among them those of drug oxidation.)
Series [2] relates to human liver microsomes (HLM). Description: Inhibition of cotinine to 3HC formation in pooled human liver microsomes. The format is biochemical. The following applies: cotinine 900 μM.
For a further series, the target named is T1, CYP2A6 (Homo sapiens, UniProt P11509).
T1 sequence (P11509 1-494): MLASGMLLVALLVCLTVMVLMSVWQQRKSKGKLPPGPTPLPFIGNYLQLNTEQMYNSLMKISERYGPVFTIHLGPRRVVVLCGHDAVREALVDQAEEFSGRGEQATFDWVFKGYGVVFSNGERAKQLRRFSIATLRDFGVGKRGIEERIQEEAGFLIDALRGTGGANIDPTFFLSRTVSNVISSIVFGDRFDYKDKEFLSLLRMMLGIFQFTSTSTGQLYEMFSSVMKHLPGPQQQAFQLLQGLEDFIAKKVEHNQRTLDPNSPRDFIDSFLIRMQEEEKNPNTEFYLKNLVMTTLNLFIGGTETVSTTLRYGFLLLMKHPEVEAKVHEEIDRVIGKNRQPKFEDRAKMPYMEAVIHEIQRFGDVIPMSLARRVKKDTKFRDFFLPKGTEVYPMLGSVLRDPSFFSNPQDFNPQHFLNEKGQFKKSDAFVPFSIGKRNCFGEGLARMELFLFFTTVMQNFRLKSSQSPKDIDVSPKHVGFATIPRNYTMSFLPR
The format is biochemical. Conditions: for inhibition of nornicotine formation: nicotine substrate, CYP2A6 microsomes; for IC50: nicotine 50 μM, rec CYP2A6 microsomes.

The target in a further series is T2, UGT2B10 (Homo sapiens, UniProt P36537).
T2 sequence (P36537 24-528): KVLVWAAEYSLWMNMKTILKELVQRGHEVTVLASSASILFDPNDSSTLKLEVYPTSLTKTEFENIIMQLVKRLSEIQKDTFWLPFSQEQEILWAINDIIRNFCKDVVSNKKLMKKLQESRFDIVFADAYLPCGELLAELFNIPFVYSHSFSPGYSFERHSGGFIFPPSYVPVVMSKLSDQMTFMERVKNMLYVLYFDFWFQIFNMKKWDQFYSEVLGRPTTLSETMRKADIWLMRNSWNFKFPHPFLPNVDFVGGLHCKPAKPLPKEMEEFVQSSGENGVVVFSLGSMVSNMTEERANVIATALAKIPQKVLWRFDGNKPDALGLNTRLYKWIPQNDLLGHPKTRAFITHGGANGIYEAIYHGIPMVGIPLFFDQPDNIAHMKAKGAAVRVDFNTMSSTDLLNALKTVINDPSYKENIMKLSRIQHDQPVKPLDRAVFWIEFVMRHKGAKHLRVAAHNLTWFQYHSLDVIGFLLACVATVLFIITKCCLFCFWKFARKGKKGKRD
In kind it is biochemical. Conditions: UGT2B10 microsomes; nicotine or cotinine as substrate; screening.

The target in a further series is T3, UGT1A4 (Homo sapiens, UniProt P22310).
T3 sequence (P22310 29-534): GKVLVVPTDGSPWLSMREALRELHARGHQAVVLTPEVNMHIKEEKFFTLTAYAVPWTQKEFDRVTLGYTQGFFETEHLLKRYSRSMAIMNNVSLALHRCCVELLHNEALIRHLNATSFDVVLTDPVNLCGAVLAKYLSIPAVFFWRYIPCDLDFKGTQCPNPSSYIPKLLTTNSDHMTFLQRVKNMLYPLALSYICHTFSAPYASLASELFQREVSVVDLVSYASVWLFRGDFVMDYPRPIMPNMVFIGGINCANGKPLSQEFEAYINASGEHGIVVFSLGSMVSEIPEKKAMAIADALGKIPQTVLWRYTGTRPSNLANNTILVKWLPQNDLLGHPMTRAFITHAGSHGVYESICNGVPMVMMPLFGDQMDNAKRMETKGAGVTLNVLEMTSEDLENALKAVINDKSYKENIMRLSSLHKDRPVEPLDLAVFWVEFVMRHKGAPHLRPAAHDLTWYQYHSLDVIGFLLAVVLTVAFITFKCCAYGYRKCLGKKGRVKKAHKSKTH
The format is biochemical. The following applies: UGT1A4 microsomes; nicotine or cotinine as substrate; screening.

For series [3] the following is noted: cited from earlier work; for physiological levels in the plasma corrected for plasma protein binding: after a single clinical dose of CBD.
The next series concerns the target T4, UGT1A9 (Homo sapiens, UniProt O60656).
T4 sequence (O60656 26-530): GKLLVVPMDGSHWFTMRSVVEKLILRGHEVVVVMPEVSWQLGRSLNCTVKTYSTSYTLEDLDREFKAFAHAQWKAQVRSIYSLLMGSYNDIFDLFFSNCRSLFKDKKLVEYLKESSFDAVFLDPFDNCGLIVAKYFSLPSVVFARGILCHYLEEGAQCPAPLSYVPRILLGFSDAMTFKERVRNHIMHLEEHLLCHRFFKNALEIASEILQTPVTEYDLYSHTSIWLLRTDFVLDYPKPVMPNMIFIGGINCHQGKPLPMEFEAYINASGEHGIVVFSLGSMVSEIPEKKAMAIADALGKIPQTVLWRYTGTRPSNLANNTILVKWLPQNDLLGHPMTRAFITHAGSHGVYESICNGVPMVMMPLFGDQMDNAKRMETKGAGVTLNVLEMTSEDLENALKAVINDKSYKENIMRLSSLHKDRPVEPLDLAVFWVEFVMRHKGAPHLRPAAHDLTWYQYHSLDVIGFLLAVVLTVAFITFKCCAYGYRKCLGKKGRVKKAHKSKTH
The format is biochemical. The following applies: 3HC 30 mM; for decrease in 3HC-Gluc formation: UGT1A9 microsomes; for IC50: rec UGT1A9 microsomes.

A further series has as its target T5, UGT2B17 (Homo sapiens, UniProt O75795).
T5 sequence (O75795 24-530): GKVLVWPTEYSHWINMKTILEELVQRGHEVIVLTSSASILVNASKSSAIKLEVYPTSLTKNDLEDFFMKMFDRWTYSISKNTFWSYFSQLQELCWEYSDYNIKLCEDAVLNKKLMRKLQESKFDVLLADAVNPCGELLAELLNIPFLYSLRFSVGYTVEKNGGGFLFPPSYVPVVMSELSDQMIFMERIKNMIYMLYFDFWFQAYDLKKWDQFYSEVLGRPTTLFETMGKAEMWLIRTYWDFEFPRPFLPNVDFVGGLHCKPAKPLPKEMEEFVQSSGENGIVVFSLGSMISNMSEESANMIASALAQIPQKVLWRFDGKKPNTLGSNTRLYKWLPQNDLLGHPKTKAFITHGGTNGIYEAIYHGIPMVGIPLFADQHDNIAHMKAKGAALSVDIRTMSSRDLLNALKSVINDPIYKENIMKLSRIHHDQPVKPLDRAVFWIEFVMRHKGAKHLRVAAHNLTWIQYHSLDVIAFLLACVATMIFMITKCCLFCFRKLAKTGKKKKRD
The format is biochemical. Conditions: UGT2B17 microsomes; 3HC as substrate; screening.

The mark [4] stands for this setting: single dose regimen of Epidiolex (6000 mg).

Where two headings read alike, the source gives them in different places.

As a reminder, the IC50 is the midpoint of a concentration-inhibition curve. `C=C(C)[C@@H]1CCC(CO)=C[C@H]1c1c(O)cc(CCCCC)cc1O` [7-OH-CBD, 7-hydroxy-cannabidiol]: the IC50 is 21 ± 5.2 µM in series [1]; 9.1 ± 3.4 µM in series [2]; 2.1 ± 0.97 µM against CYP2A6 (nornicotine formation); 0.16 ± 0.08 µM on CYP2A6 (read-out: IC50,u (binding-corrected IC50), nornicotine formation, IC50 × fu,inc). The “inhibition of nornicotine formation” value against CYP2A6 (1 μM inhibitor) turned out to be 55%; on CYP2A6 (10 μM inhibitor), 70%. For the same molecule, the “inhibition of nicotine-Gluc or cotinine-Gluc formation” value on UGT2B10 and on UGT1A4 was “no significant inhibition” each time. In series [3], the “physiological levels in the plasma corrected for plasma protein binding” value is 0.04–0.09 μM. In addition, the “calculated unbound plasma Cmax” value in series [3] (setting [4]) is 93.6 nM.
Regarding `C=C(C)[C@@H]1CCC(C)=C[C@H]1c1c(O)cc(CCCCC)cc1O` [CBD, cannabidiol], the IC50 stood at 10 ± 2.9 µM in series [1]; 8.8 ± 1.3 µM in series [2]; 3.7 ± 2.2 µM on CYP2A6 (IC50, nornicotine formation); 0.23 ± 0.14 µM on CYP2A6 (IC50,u (binding-corrected IC50), nornicotine formation, IC50 × fu,inc); 9.7 ± 1.5 µM on UGT1A9 (IC50, 3HC-Gluc formation, 2% BSA); 0.37 ± 0.06 µM at UGT1A9 (IC50,u (binding-corrected IC50), 3HC-Gluc formation, IC50 × fu,inc). Moreover, the “decrease in 3HC-Gluc formation” value on UGT1A9 (1 μM CBD) is recorded as 55%; on UGT1A9 (10 μM CBD) it was 65%. Also, the “effect on 3HC-Gluc formation” value on UGT2B17 is listed as “not inhibited”. In addition, the “inhibition of nicotine-Gluc or cotinine-Gluc formation” value against UGT2B10 and at UGT1A4 was “no significant inhibition” each time. Besides, in series [3], the “physiological levels in the plasma corrected for plasma protein binding” value was 0.06–0.15 μM. Besides, in series [3] (read-out: plasma Cmax (maximum concentration), total, single dose regimen of Epidiolex (6000 mg)), the Cmax was 2500 nM. In addition, the “calculated unbound plasma Cmax” value in series [3] (setting [4]) was 75 nM.
